Results: patent publication US20110028554A1, “PHARMACEUTICAL COMPOSITIONS COMPRISING DIIODOTHYRONINE AND THEIR THERAPEUTIC USE” (UNIVERSITE JOSEPH FOURIER, priority 2007, published 2011)

Key:
[1] = Growth rate (body weight) of Wistar rats with subcutaneous continuous-release pellet; format: in vivo; settings: high dosage 25 μg/100 g BW
Method: (§1) Adult male rat bred in the animal room facilities of Laboratory of Fundamental and Applied. Bioenergetics (Wistar strain) or purchased from Charles-River Laboratories, Domaine des oncins, L'ARBRESLE France [(genetically obese normoglycemic (Zucker or Fa/Fa) or diabetic (ZDF)] were caged individually in stainless steel hanging cages and maintained in a 22° C., 50±10% relative humidity and 12 h:12 h light:dark environment. All animals were fed ad libitum with a standard rat chow (Safe A04, Villemoisson, France) and tap water. Body mass and food intake were recorded twice/thrice a week and fresh food was provided, at the same time to ensure minimal disturbance to the animals' food, behavior.
(§2) Eight-week old rats (300 g±10 g) were anesthetized by simultaneous intraperitoneal injection of diazepam 4 mg/kg and ketamine 100 mg/kg. In order to maintain body temperature during the surgery (10 min), animals were placed on a warm blanket. After interscapular shaving, a small incision of 0.5 cm of the skin allows the subcutaneous implantation of a small pellet (containing rT3 or 3′,3-T2) with a 10-gauge precision trochar. The pellets, manufactured by Innovative Research of America (Sarasota, Fla., USA) are constituted of a biodegradable matrix that effectively and continuously release the active product in the animal.
(§3) 3-5 diiodothyronine (3-5 T2) or 3-3′diiodothyronine (3-3′ T2) were used at different doses (5, 0.5, or 0.1 mg/pellet) were implanted in order to provide a continuous and constant drug delivery over 60 days (which represents 25 μg, 2.5 μg or 0.5 μg/day/100 g BW).

[2] = Food intake of Wistar rats; format: in vivo; settings: high dosage 25 μg/100 g BW
Method: as §1, §2, §3

[3] = Body composition (adipose tissues, skeletal muscles, brown adipose tissue) of Wistar rats; format: in vivo; settings: high dosage 25 μg/100 g BW
From the text: (§4) At the end of the experimental period, animals were sacrificed by decapitation, in order to avoid the well-known effects of general anesthetics on mitochondrial metabolism. Blood, samples were immediately collected and plasma was frozen for subsequent determination of serum metabolites and hormones. Liver, muscles and fat depots were quickly excised and weighed. Liver median lobe was rapidly freeze-clamped. Muscles (plantaris, soleus and gastrocnemius) were frozen in isopentane precooled in liquid nitrogen. Mesenteric fat consisted, of adipose tissue surrounding the gastro-intestinal tract from the gastro-oesophageal sphincter to the end of the rectum with special care taken in distinguishing and removing the pancreas. Retroperitoneal fat pad was taken as the distinct depot behind each kidney along the lumbar muscles. Epididymal fat consisted, of adipose tissue on top of the epididymis. For subcutaneous depot measurement, a rectangular piece of skin was taken on the right side of each animal from the median line of the abdomen between the spine and the right hip to the first rib. Interscapular brown adipose tissue was removed and dissected free from adjacent muscles and white adipose tissue. The heart ventricles, the right kidney and the spleen were also excised, weighed and frozen.

liver mitochondria = test: Liver mitochondrial oxygen consumption (JO2) of treated Wistar rats; format: in vivo; settings: high dosage 25 μg/100 g BW
Method: (§5) All measurements were performed using mitochondria (1.0 mg mitochondrial protein/ml) incubated with various substrates: • GM: glutamate/malate (5 mM/2.5 mM) • SR: succinate/rotenone (5 mM/5 μM), • GMS: glutamate/malate/succinate (5 mM/2.5 mM/5 mM), • Palm: palmitoyl carnitine (55 μM), • Octa: octanoyl carnitine (100 μM), • TMPD/AsC: TMPD/ascorbate (0.5 mM/0.5 mM), and • TMPD/AsC/DNP: TMPD/ascorbate/DNP (0.5 mM/0.5 mM/75 μM).
JO2 was recorded in the presence of the substrate and following the addition of 1 mM ADP (adenosine diphosphate) (state 3).
The oligomycin was added to the mitochondrial suspension to determine the non-phosphorylating respiratory-rate (state 4).
(§6) The major part of the liver and the red part of each quadriceps were rinsed, and chopped into isolation medium (250 mM sucrose, 20 mM Tris-HCl and 1 mM EGTA-Tris, pH 7.4). Nuclei and cell debris were removed, by centrifugation at 800 g for 10 min. Mitochondria were then isolated from the supernatant by spinning twice at 8,000 g for 10 minutes. The mitochondrial pellet was resuspended in 0.5 ml of isolation buffer and kept on ice. Mitochondrial protein was measured by the bicinchoninic acid method (Pierce, Rockford, Ill.). The final mitochondrial suspensions were maintained on ice and were used for measurements of oxygen consumption rate and reactive oxygen species (ROS) production.
(§7) The rate of mitochondrial oxygen consumption (JO2) was measured at 30° C. in an incubation chamber with a Clark-type O2 electrode filled with 2 ml of incubation medium (125 mM KCl, 10 mM Pi-Tris, 20 mM Tris-HCl, 0.1 mM EGTA, pH 7.2). All measurements were performed using mitochondria (1.0 or 0.2 mg mitochondrial protein/ml for liver and skeletal muscle) incubated either with various substrates: glutamate/malate (5 mM/2.5 mM) and succinate (5 mM), alone or in combination, palmitoyl carnitine (55 μM) and octanoyl carnitine (100 μM). For each substrate, JO2 was recorded in the presence of the substrate alone (State 2) and following the addition of 1 mM ADP (state 3). Oligomycin (1.25 μg/mg protein) was added to the mitochondrial suspension to determine the non-phosphorylating respiratory rate (state 4). The incubation medium was constantly stirred with a built-in electromagnetic stirrer and bar flea. The efficiency of the mitochondrial oxidative phosphorylation was assessed by the state 3/state 4 ratio which measures the degree of control imposed on oxidation by phosphorylation (respiratory control ratio, RCR).

muscle mitochondria = test: Muscle mitochondrial oxygen consumption (JO2) of treated Wistar rats; format: in vivo; settings: high dosage 25 μg/100 g BW
Method: as §5, with “(0.2” for “(1.0”
JO2 was recorded in the presence of the substrate and following the addition of 1 mM ADP (state 3).
The oligomycin was added to the mitochondrial suspension to determine the non-phosphorylating respiratory rate (state 4).
as §6, §7

[4] = Plasmatic concentrations of glucose, triglycerides, cholesterol, FFA and HDL on the day of sacrifice; format: in vivo, Wistar, Zucker and ZDF rats; settings: non-diabetic Wistar rats, 3,3′-T2 treatment (dose not printed in FIG. 15A legend)
From the text: These measurements were done on venous blood of the rats the day of the sacrifice.
as §4
Glucose and 3-hydroxybutyrate (3-HB) were measured, enzymatically and non esterified fatty acid (NEFA) by colorimetric assay (Wako Chemicals).
Triglycerides and cholesterol were measured by classical routine automate apparatus.

[5] = system: nuclear receptors of the thyroid hormones, TRα-1 and TRβ-1; settings: literature; cited from earlier work

SMILES | Growth rate (body weight gain) vs placebo [1] | Food intake vs placebo [2] | Brown adipose tissue weight vs placebo [3] | Fat masses, all localizations (retroperitoneal, epididymal, mesenteric, subcutaneous) vs placebo [3] | Muscle mass / lean body mass vs placebo [3] | Liver mitochondrial respiratory rate, non-phosphorylating (state 4, oligomycin), vs placebo (liver mitochondria) | Liver mitochondrial respiratory rate, phosphorylating condition (state 3), vs placebo (liver mitochondria; all substrates) | Muscle mitochondrial respiration, non-phosphorylating (state 4), vs placebo (muscle mitochondria) | Muscle mitochondrial respiration, phosphorylating (state 3), vs placebo (muscle mitochondria) | Plasmatic glucose at the end of the treatment [4] | Binding to the nuclear receptors [5]
N[C@@H](Cc1ccc(Oc2ccc(O)c(I)c2)c(I)c1)C(=O)O [3,3′-T2, 3′,3-diiodothyronine] | did not show similar weight gain | a biphasic effect was observed | significantly increased | significantly decreased | not affected | substantially higher in the low 3,5-T2 group only | very significant increased respiratory rate | failed to substantially affect | failed to substantially affect | minor changes | 
N[C@@H](Cc1cc(I)c(Oc2ccc(O)c(I)c2)c(I)c1)C(=O)O [T3] |  |  |  |  |  |  |  |  |  |  | binds very efficiently
N[C@@H](Cc1cc(I)c(Oc2cc(I)c(O)c(I)c2)c(I)c1)C(=O)O [T4, Thyroxine] |  |  |  |  |  |  |  |  |  |  | binds less efficiently
